Experimental data as given in ChEMBL document CHEMBL4304775, “Identification and characterization of a novel chemotype for human TLR8 inhibitors” (Eur J Med Chem, 2019).

Target: T1, Toll-like receptor 8 (Homo sapiens) (UniProt Q9NR97)
T1 sequence (whole entry): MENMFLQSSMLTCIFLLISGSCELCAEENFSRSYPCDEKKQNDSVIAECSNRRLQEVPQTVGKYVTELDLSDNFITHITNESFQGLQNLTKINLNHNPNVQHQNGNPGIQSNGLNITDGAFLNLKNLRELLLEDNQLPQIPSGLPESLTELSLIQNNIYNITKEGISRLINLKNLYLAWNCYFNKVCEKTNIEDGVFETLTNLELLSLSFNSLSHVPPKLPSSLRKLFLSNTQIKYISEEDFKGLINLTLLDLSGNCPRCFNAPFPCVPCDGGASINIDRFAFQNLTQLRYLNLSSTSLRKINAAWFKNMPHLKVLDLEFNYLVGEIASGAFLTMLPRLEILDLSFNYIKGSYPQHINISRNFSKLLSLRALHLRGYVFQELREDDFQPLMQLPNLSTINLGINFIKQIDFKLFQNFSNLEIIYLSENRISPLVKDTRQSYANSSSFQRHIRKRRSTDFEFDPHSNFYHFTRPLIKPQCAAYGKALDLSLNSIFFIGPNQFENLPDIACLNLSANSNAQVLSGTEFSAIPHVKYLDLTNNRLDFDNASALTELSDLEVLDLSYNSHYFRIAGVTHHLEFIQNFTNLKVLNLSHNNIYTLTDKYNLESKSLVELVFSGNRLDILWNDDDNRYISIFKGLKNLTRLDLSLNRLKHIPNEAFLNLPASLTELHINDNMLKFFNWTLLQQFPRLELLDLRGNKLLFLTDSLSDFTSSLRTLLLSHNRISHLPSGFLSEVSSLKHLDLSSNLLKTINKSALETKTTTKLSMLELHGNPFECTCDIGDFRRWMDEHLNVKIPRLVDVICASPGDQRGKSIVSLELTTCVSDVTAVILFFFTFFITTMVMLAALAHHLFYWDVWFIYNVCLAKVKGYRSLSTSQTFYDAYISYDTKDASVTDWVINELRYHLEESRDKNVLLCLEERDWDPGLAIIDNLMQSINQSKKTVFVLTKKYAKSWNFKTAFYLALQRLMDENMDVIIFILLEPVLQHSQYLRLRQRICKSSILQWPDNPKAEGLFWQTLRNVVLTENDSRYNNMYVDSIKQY
Assay: Antagonist activity at human TLR8 expressed in HEK-Blue cells assessed as inhibition of CL075-induced NF-kappaB activation incubated for 1 hr followed by CL075-stimulation and measured after 24 hrs by quanti-blue SEAP assay
Assay type: cell-based

## FC(F)(F)c1cc(-c2ccco2)nc(NCc2cccs2)n1
  inhibition: Dose-dependent effect
